Laboratory results as given in patent publication US20190209548A1, “LINKED DIARYL COMPOUNDS WITH ANTICANCER PROPERTIES AND METHODS OF USING THE SAME” (University of Maryland, College Park, priority 2014, published 2019).

Columns and labels:
[1] = tested on: 8 bp AT duplex DNA; test: UV-visible titration with duplex DNA; format: binding; conditions: ligand 10 μM
Procedure: UV titration studies of DNA with the triazene ligands, DMZ and Triazene-1. The molar extinction coefficients at 260 nm for 22-mer c-kit1, 18-mer VEGF, 23-mer bcl-2 2345, 15-mer TBA and 20-mer 8 bp AT are as follows 226,700 M^−1 cm^−1, 169,800 M^−1 cm^−1, 227,300 M^−1 cm^−1, 143,300 M^−1 cm^1 and 205,500 M^−1 cm^−1, respectively. The concentration of ligands used in this study was 10 μM and the DNA concentrations were 0, 0.25, 1.5, 3, 5, 6, 7, 8, 9, 10, 20, 30, 40, 50, 100, and 15 μM. The buffer contained 250 mM KCl, 50 mM Tris-HCl (at pH 7.5). The following quadruplex DNA were tested: c-kit1, VEGF, bcl-2 2345, and TBA. Duplex DNA (8 bp AT) was also tested. The sample was first heated up to 95° C. for 5 min without the ligand and then cooled down to room temperature in 15 min. The ligand was then added and the mixture was incubated at 4° C. for ˜12 h before recording the data. In case of Triazene-1 and Triazene-2, the sample mixture contained 1% DMSO.

[2] = tested on: 27mer bcl-2; test: ITC titration with bcl-2 G-quadruplex; format: binding
Procedure: (§1) Isothermal titration calorimetry. ITC experiments were performed using a VP-ITC calorimeter (GE-Healthcare). A typical ITC experiment involved as many as addition of 28 (10 μL) injections of as high as 1 mM ligand solutions into ˜1.5 mL of a dilute DNA solution (10 μM). Corrected titration curves were achieved by subtracting the blank titration data from the ITC-data for the ligand-DNA titrations. Corrected ITC titrations were fit with a nonlinear regression algorithm again using the CHASM ITC data analysis program developed in our laboratory.
DNA stock solutions were prepared by reconstituting the lyophilized oligonucleotide into 20 mM Tris buffer with a salt concentration of 100 mM KCl and a pH of 7.2. Approximately 2 mL of the oligonucleotide was dialyzed (1000 Mw cutoff membrane) against three changes of buffer solution (1 L, 24 h each) at 4° C. The concentrations of stock DNA solutions were verified using UV-Vis. G-Quadruplex DNAs were annealed by quickly heating to sample to 100° C., holding at 100° C. for ten minutes then slowly cooling to 5° C. over three hours period. Molar extinction coefficient of the DNAs were determined using a nearest-neighbor method for single stranded DNA. The extinction coefficients at 260 nm for the WT 27-mer bcl-2, WT 24-mer c-myc, WT 22-mer human telomere hTel sequences are 267,200 M^−1cm^−1, 248,100 M^−1cm^−1, and 228,500 M^−1cm^−1 respectively. The extinction coefficient at 260 nm for the 7 base pair hairpin with A2T2 (7 bp HP⋅AT) and the 7 base pair hairpin without A2T2 (7 bp HP) are 165,200 M^−1cm^−1 and 159,200 M^−1cm^−1 respectively. Cell culture grade water purchased from Corning was used for all experiments.

[3] = tested on: 22mer hTel Na^+; test: ITC titration with hTel G-quadruplex, Na+ form; format: binding, human; conditions: Na+ form of hTel22
Procedure: as §1
[…] Approximately 2 mL of the oligonucleotide was dialyzed (1000 Mw cutoff membrane) against three changes of buffer solution (1 L, 24 h each) at 4° C. The concentrations of stock DNA solutions were verified using UV-Vis. G-Quadruplex DNAs were annealed by quickly heating to sample to 100° C., holding at 100° C. for ten minutes then slowly cooling to 5° C. over three hours period. Molar extinction coefficient of the DNAs were determined using a nearest-neighbor method for single stranded DNA. The extinction coefficients at 260 nm for the WT 27-mer bcl-2, WT 24-mer c-myc, WT 22-mer human telomere hTel sequences are 267,200 M^−1cm^−1, 248,100 M^−1cm^−1, and 228,500 M^−1cm^−1 respectively. […]

[4] = tested on: 22mer hTel K^+; test: ITC titration with hTel G-quadruplex, K+ form; format: binding, human
Procedure: as §1
DNA stock solutions were prepared by reconstituting the lyophilized oligonucleotide into 20 mM Tris buffer with a salt concentration of 100 mM KCl and a pH of 7.2. Approximately 2 mL of the oligonucleotide was dialyzed (1000 Mw cutoff membrane) against three changes of buffer solution (1 L, 24 h each) at 4° C. The concentrations of stock DNA solutions were verified using UV-Vis. G-Quadruplex DNAs were annealed by quickly heating to sample to 100° C., holding at 100° C. for ten minutes then slowly cooling to 5° C. over three hours period. Molar extinction coefficient of the DNAs were determined using a nearest-neighbor method for single stranded DNA. The extinction coefficients at 260 nm for the WT 27-mer bcl-2, WT 24-mer c-myc, WT 22-mer human telomere hTel sequences are 267,200 M^−1cm^−1, 248,100 M^−1cm^−1, and 228,500 M^−1cm^−1 respectively. […]

[5] = tested on: NBM; test: WST-1 IC50 determination, normal bone marrow; format: cell-based, human; conditions: normal bone marrow, 72 hours, WST-1
Procedure: Cell lines and culturing. The following human cell lines were purchased from ATCC (ATCC, Manassas, Va.): prostate cancer cells (PC-3), triple negative breast cancer cells (MDA-MB-231), ovarian cancer cells (OVCAR-3), normal bone marrow (NBM) and normal fibroblast cells (MCR5A). MDA-MB-231 cells were grown at 37° C. with 5% CO2 atmosphere with DMEM (Life technologies, Carlsbad, Calif.) supplemented with heat-inactivated 10% (V/V) fetal bovine serum. OVCAR-3 and PC-3 cells were grown at 37° C. with 5% CO2 atmosphere with RPMI (Life technologies, Carlsbad, Calif.) supplemented with heat-inactivated 10% (V/V) fetal bovine serum. Cell lines were grown and maintained according to ATCC recommendations.
IC50 determination. Cell lines were seeded into 96-well plates the afternoon prior to treatment. Cell seeding number was determined by growing cells in log phase growth during drug treatment. Approximately 18 hours later, compounds were semi-serially diluted in dimethyl sulfoxide (DMSO) and then growth medium, and added to cells. Plates were incubated for 72 hours prior to addition of WST-1 (Promega, Madison Wis.). Plates were read after 4 additional hours of incubation at 37° C. using a Bio-Tek Synergy HT plate reader (Bio-Tek, Winooski, Vt.). Data was analyzed, graphed and IC50s generated using GraphPad Prism Software (Graphpad, La Jolla, Calif.).
IC50 determination: For the determination of IC50 for the azolamide class, the same protocol as described previously was followed.

[6] = tested on: B-DNAs containing the AT rich sequence; conditions: measured by NMR, Jenkins et al.; cited from earlier work
[7] = ITC, 20 mM Tris, 100 mM KCl, pH 7.2

N=C(N)c1ccc(NN=Nc2ccccc2)cc1 [DMZ1]
shift of absorption spectrum upon DNA titration [1]: no such shift was observed
K1 [2, 7]: 3500 M⁻¹
ITC interaction heat [3]: calorimetrically silent
K1 [4]: 2100 M⁻¹

N=C(N)c1ccc(N=NNc2cccc(C#Cc3ccc(F)cc3)c2)cc1 [DMZ9]
IC50 ([5]; read-out: IC50 ± SD, NBM): 5600 nM

N=C(N)c1ccc(/N=N/Nc2ccccc2C#Cc2ccc(F)cc2)cc1 [DMZ13]
IC50 ± SD, NBM [5]: NE (NE means not effective. Cell viability was the same or greater than 75% of the DMSO control at 20 μM compound concentration.)

N=C(N)c1ccc(/N=N/Nc2ccc(C(=N)N)cc2)cc1 [DMZ, Diminazene aceturate, reference compound]
K1 [2, 7]: 8.8e+08 M⁻¹
K2 [2, 7]: 1.9e+06 M⁻¹
K3 [2, 7]: 64000 M⁻¹
Kd ([2]; from ITC data, as low as, read-out: dissociation constant): ~1 nM
Kavg, binding affinity [6]: ≈ 1×10^6 M^−1
ITC interaction heat [3]: calorimetrically silent
K3 [4]: 55000 M⁻¹
